According to patent US9868784B2, “Antibodies against the S100P protein for the treatment and diagnosis of cancer” (LYKERA BIOMED SA, priority 2011, dated 2018):
“And” between values parts separate entries of the source, which are not always exact repeats. Equal entries are not always repeated.

Assays:
[1] = tested on: human pancreatic BxPC3 tumors; test: Orthotopic BxPC3-luc pancreatic tumor model, tumor progression and metastases (TMPN score, bioluminescence); format: in vivo, nude mice; set-up: key to Nodes score / Tumor score / Organ Metastases, Liver score / Organ Metastases, Lung score / Peritoneal Metastases, Diaphragm score / Peritoneal Metastases, Kidney score / Peritoneal Metastases, Adrenals score / Peritoneal Metastases, Intestine score / Peritoneal Metastases, Peritoneum score: TMPN category scores per Table 2 (modified Hennig 2005); key to Total Score: product of T, M, P and N scores per animal; settings: individual animal, end of experiment
Experimental: The antitumorigenic and antimetastatic capability of the monoclonal antibodies 3F8 and 2H8 against S100P was assessed in an orthotopic tumor model using the human adenopancreatic BxPC3 tumor cell line stably expressing a lentiviral luciferase reporter gene.
BxPC3-luc cell line in exponential growth were harvested with trypsin-EDTA (0.05%/0.02%) (Invitrogen), washed, and examined for viability by trypan blue dye exclusion. Viability was greater than 95%. For primary tumor growth, cells (5×105 in 0.1 mL DMEM high glucose) were injected into the pancreas of 5 nude mice.
Four weeks after cell injection, when tumors became established (300-350 mm3), two animals were killed, tumors were obtained, sliced in 5 mm3 pieces approximately and implanted in 15 new mice. Mice were divided into 3 groups of five animals each one.
Tumor growth and metastasis were followed by bioluminescent imaging, palpation of animals and the examination of endpoint criteria of treated animals (occurrence of ascitic fluid and body weight loss).
Mice were treated either with cromolyn (reference compound that is known to bind to S100P and block its extracellular activity, Arumugam T. et al. 2006. J. Natl. Cancer Inst. 98(24):1806-18), daily (5 mg/Kg body weight by ip injection) or with our antibodies against S100P (3F8 and 2H8), three times per week at 25 mg/Kg by ip injection, starting the treatment 24 hours after tumor implantation. At the end of the experiment (treatment of 30 days) animals were killed, pancreatic tumors were surgically removed, weighted and an staging and scoring system of peritoneal tumors, pancreatic tumors, lymph node metastases, organ metastases, and ascites was developed and recorded according to our TMPN scoring system (Table 2) modified from Hennig R. et al. 2005. Neoplasia, 7(4):417-425 to evaluate tumor progression. Scores from each category were multiplied with each other because patterns in medicine follow multiplicative, rather than additive, rules.
Scores for the primary tumor (T), organ metastases (M), peritoneal metastases (P), and lymph node metastases (N) were multiplied to calculate the total tumor score for each animal. Score P4 value is the sum of the corresponding P0, P1, P2, P3 (P0/1/2/3) plus an additional value of 3 for metastasis presence in the diaphragm, 3 for kidney, 3 for intestine and 3 for adrenal glands.
Bioluminescence imaging was conducted using a cryogenically cooled IVIS 100 imaging system coupled to a data acquisition computer running Living Image Software (Xenogen Corp). Before imaging, mice were placed in an acrylic chamber anesthetized with 2.5% isofluorane-air mixture, and injected intraperitoneally with 15 mg/mL of luciferin potassium salt in PBS at a dose of 150 mg/Kg body weight. At the end of experiment, after the primary tumors were removed, cancer cell dissemination and metastasis were visualized using IVIS imaging, and metastatic colonies were counted and measured (photons/second).
Comparisons between groups were made using the Kruskall-Wallis ANOVA on ranks as a nonparametric test. Differences for which P value was less than 0.05 were considered statistically significant.

[2] = tested on: HT1080 human fibrosarcoma cell line; test: HT1080 cell survival by MTT method
Experimental: Briefly, HT1080 cells (1×10^4 cells/well) were plated onto 96-well cell culture plates in 50 μl of DMEM medium. Twenty-for hours later, 50 μl of medium with doxorubicin (240 nM or 1 μM) alone or in combination with either S100P or S100P combined with the antibodies (see FIG. 6) were added to each well and were cultured for 72 hours. Then 10 μl of a MTT solution (5 mg/ml PBS) was added to each well and after 4 hours cells were lysed, formazan product was solubilised with 100 μl of extraction buffer (15% SDS in 50% N,N-dimethylformamide pH 4.7) and colorimetric result was measured at 570 nm using a multi-well scanning spectrophotometer 5 hours after solubilization.

[3] = tested on: BxPC3 pancreatic adenocarcinoma tumor cells; test: Proliferation of BxPC3 tumor cells induced by S100P; format: cell-based, human; settings: S100P 100 nM, 48 hours
Experimental: The proliferation studies on the BxPC3 line were analyzed using the Cell Proliferation ELISA Biotrak™ System kit (GE Healthcare) following the manufacturer's instructions with some modifications. Three thousand cells were seeded in 50 μl of RPMI 1640 culture medium supplemented with 3% FCS in each well. The recombinant S100P protein (100 nM) alone or in combination with the antibodies was added to the cells in the same seeding medium to test the proliferative or inhibitory capacity thereof, respectively. To test the inhibitory effect of the 5D7, 4B12, 3E3, 7F1, 9F3, 6F1, 1A5, 3F8 and 2H8 monoclonal antibodies, a concentration of 500 nM of each antibody was incubated for 2 hours at 37° C. with the recombinant S100P protein before being added to the culture. After 48 hours at 37° C., the proliferation was determined. The two-tailed Mann-Whitney nonparametric test was used to compare the groups. A p value <0.05 was taken for the values to be statistically significant.

Molecule: O=C(O)c1cc(=O)c2c(OCC(O)COc3cccc4oc(C(=O)O)cc(=O)c34)cccc2o1 [Cromolyn, cromolyn]
- Total Score ([1]; T x M x P x N scores multiplied): 2600 and 1000 (2×) and 1300 and 1750 (2×)
- Tumor score ([1]; TMPN score (Table 2), 30 days treatment, antibodies 25 mg/Kg ip three times per week, cromolyn 5 mg/Kg ip daily): 4 (4×) and 5 (2×)
- Nodes score ([1]; TMPN score): 5
- Organ Metastases, Liver score ([1]; TMPN score): 5
- Organ Metastases, Lung score ([1]; TMPN score): 5 and 0 (5×)
- Peritoneal Metastases, Adrenals score ([1]; TMPN score): 3 and 0 (5×)
- Peritoneal Metastases, Diaphragm score ([1]; TMPN score): 0 and 3 (5×)
- Peritoneal Metastases, Intestine score ([1]; TMPN score): 3
- Peritoneal Metastases, Kidney score ([1]; TMPN score): 3 (4×) and 0 (2×)
- Peritoneal Metastases, Peritoneum score ([1]; TMPN score): 4 (4×) and 5 (2×)

Molecule: COc1cccc2c1C(=O)c1c(O)c3c(c(O)c1C2=O)C[C@@](O)(C(=O)CO)C[C@@H]3O[C@H]1C[C@H](N)[C@H](O)[C@H](C)O1 [Doxorubicin, doxorubicin]
- IC50 ([2]; Homo sapiens, HT-1080, 72 h): 240 nM
- EC50 ([2]; Homo sapiens, HT-1080, read-out: Toxicity EC50): 240 nM

B1: S100P: human recombinant S100P protein (SEQ ID NO: 2) expressed in E. coli, used as stimulus (protein)
chain: GSHMTELETAMGMIIDVFSRYSGSEGSTQTLTKGELKVLMEKELPGFLQSGKDKDAVDKLLKDLDANGDAQVDFSEFIVFVAAITSACHKYFEKAGLK
modifications: Human
- increase of growing respect to the non treated HT1080 cells ([2]; S100P 500 nM, doxorubicin 240 nM, 72 h): approximately 40%
- proliferation increase compared to cells not treated with S100P [3]: ~80%
